Measured values published in patent publication US20100068793A1, “DEVICES AND METHODS FOR PRODUCTION OF CELL AGGREGATES” (priority 2007, published 2010).
“Also recorded” adds a separate entry of the source.

Tests used:
[1] = system: hESC; assay: Aggregate formation from hESC cultured on Matrigel after BMP pre-differentiation; format: cell-based, human; settings: 50 ng/mL BMP4 pre-differentiation, control without BMP4 formed no aggregates
Protocol: Prepare a single-cell suspension by treating the hESC culture with TrypIE for 5 minutes, and washing the cells off with X-Vivo10
Count cells, spin down and re-suspend to 1 million cells/mL in X-Vivo or other medium of interest. Cells may all derive from a single culture, or cells from different sources may be combined.

[2] = system: hESC; assay: Forced aggregation of hESC with or without ROCK inhibitor Y-27632; format: cell-based, human
Protocol: d) form aggregates in the presence of 10 μM Y27632 5. Suspend cells in X-vivo10 or other medium of interest at a concentration appropriate to the desired EB size and plate format (e.g. to form aggregates from 10,000 cells in 100 μL medium each in 96-well plates, suspend 1 million cells in 10 mL; for aggregates from 2,000 cells in 25 μL medium each in 384-well plates, suspend 0.8 million cells in 10 mL. NB multichannel pipettes or automated liquid handling systems often require a minimum “dead volume”, thus it may be necessary to make 10-20% additional volume of suspension depending on the specifics of the equipment employed. 6. Dispense the cell suspension into the well plates prepared in step 2. 7. Centrifuge for 5 minutes at 240×g 8. Incubate overnight at 37 degrees, 5% CO2 in a standard tissue culture incubator. 9. Recover EBs by pipetting using large-bore or cut-off pipette tips or by inverted centrifugation in the device described and illustrated in FIG. 1 or 2 for 1 minute at 20×g hESC were cultured on Matrigel in conditioned medium or with 48 hours of pre-differentiation in serum-containing medium, and were subjected to the forced aggregation protocol at 2,000 cells per well with or without addition of 10 μM of the ROCK inhibitor Y-27632. […] In the absence of both, no aggregates were formed (N.D.—size not determined). […]

| Compound | stable aggregate formation after BMP4 pre-differentiation [1] | aggregate size and symmetry ([2]; 10 μM Y-27632, hESC cultured on Matrigel, 2,000 cells per well, with or without 48 hours pre-differentiation in serum-containing medium) | aggregate formation / stability (SISO-aggregates, cross-sectional area) ([2]; 10 μM Y-27632 added to cell suspension immediately prior to dispensing, hESC on Matrigel in MEF-conditioned medium, with or without 48 hours predifferentiation in 20% serum) |
| --- | --- | --- | --- |
| BMP4: bone morphogenetic protein growth factor used for pre-differentiation | Aggregates formed from the pre-differentiated population | – | – |
| C[C@@H](N)[C@H]1CC[C@H](C(=O)Nc2ccncc2)CC1 [Y-27632] | – | size and symmetry of aggregates are improved; also recorded: substantially increased aggregate size and symmetry | sizeable aggregates resulted |
